Results from patent US9233167B2, “Oligomer-opioid agonist conjugates” (NEKTAR THERAPEUTICS, priority 2007, dated 2016).
Where two headings read alike, the source gives them in different places.

Tests used:
[1] = Intravenous pharmacokinetics in Sprague-Dawley rats
[2] = biological target: cloned human mu opioid receptor (Homo sapiens (Human), UniProt P35372); assay: cell-based
Method: (§1) The efficacy of the various PEG-opioid conjugates was measured by their ability to inhibit cAMP formation following receptor activation. Studies were conducted in CHO cells heterologously expressing the cloned human mu, kappa or delta opioid receptors. cAMP was measured using a cAMP HiRange homogenous time-resolved fluorescence assay (HTRF Assay), that is based on a competitive immunoassay principle (Cisbio, Cat.#62AM6PEC).
(§2) Briefly, suspensions of cells expressing either the mu, kappa or delta opioid receptors were prepared in buffer containing 0.5 mM isobutyl-methyl xanthine (IBMX). […] EC50 values were calculated for each compound from a sigmoidal dose-response plot of concentrations versus maximum response. To determine if the compounds behaved as full or partial agonists in the system, the maximal response at the highest tested concentrations of compounds were compared to that produced by a known full agonist.

[3] = biological target: T1, recombinant human mu opioid receptor (Homo sapiens (Human), UniProt P35372); type: binding
Method: (§3) Radioligand displacement was measured using scintillation proximity assays (SPA).
(§4) Briefly, serial dilutions of the test compounds were placed in a 96-well plate to which were added SPA beads, membrane and radioligand. The assay conditions for each opioid receptor subtype are described in Table 10 below. The plates were incubated for 8 hours-overnight at room temperature, spun at 1000 rpm to pellet the SPA beads, and radioactivity was measured using the TopCount® microplate Scintillation counter. Specific binding at each concentration of test compound was calculated by subtracting the non-specific binding measured in the presence of excess cold ligand. IC50 values were obtained by non-linear regression of specific binding versus concentration curves and Ki values were calculated using Kd values that were experimentally pre-determined for each lot of membrane preparations.

[4] = biological target: recombinant human delta opioid receptor (Homo sapiens (Human), UniProt P41143); conditions: Ki relative to nalbuphine
Method: (§5) Using conventional receptor binding assay techniques, several molecules were assayed to determine binding activity at kappa, mu and delta opioid subtypes of opioid receptors.
(§6) Cells were plated in 24 well plates at a density of 0.2-0.3*10^6 cells/well and washed with assay buffer containing 50 mM Tris.HCl and 5 mM MgCl2 (pH 7.4). Competition binding assays were conducted in whole cells incubated with increasing concentrations of test compounds in the presence of appropriate concentration of radioligand. 0.5 nM ^3H Naloxone, 0.5 nM ^3H Diprenorphine and 0.5 nM ^3H DPDPE were used as the competing radioligands for mu, kappa and delta receptors respectively. Incubations were carried out for two hours at room temperature using triplicate wells at each concentration. At the end of the incubation, cells were washed with 50 mM Tris HCl (pH 8.0), solubilized with NaOH and bound radioactivity was measured using a scintillation counter.
(§7) Specific binding is determined by subtraction of the cpm bound in the presence of 50-100× excess of cold ligand. Binding data assays were analyzed using GraphPad Prism 4.0 and IC50 is generated by non-linear regression from dose-response curves.

[5] = biological target: T1, recombinant human mu opioid receptor; type: binding; remark: listed apart in the source
Method: as §5, §6, §7

CD-1 male mice = assay: Phenylquinone writhing analgesic assay; type: in vivo, mouse; conditions: pretreatment 30 min before PQ
Method: Mice were treated according to standard protocols. Mice were given a single “pretreatment” dose of a compound lacking covalent attachment of a water-soluble, non-peptidic oligomer (i.e., non-PEG oligomer-modified parent molecule), a corresponding version comprising the compound covalently attached to a water-soluble, non-peptidic oligomer (i.e., the conjugate), or control solution (IV, SC, IP or orally) thirty minutes prior to the administration of the phenylquinone (PQ) solution. Each animal was given an IP injection of an irritant (phenylquinone, PQ) that induces “writhing” which may include: contractions of the abdomen, twisting and turning of the trunk, arching of the back, and the extension of the hindlimbs. Each animal was given an IP injection of PQ (1 mg/kg PQ, 0.1 mL/10 g bodyweight). After the injection, the animals were returned to their observation enclosure and their behavior was observed. Contractions were counted between 35 and 45 minutes after the “pretreatment”. The animals were used once. Each tested article was dosed at a range between 0.1 and 100 mg/kg (n=5-10 animals/dose).

in vivo [6] = conditions: male, Sprague-Dawley, rat, plasma, iv, 1 mg/kg
[7] = Oral pharmacokinetics in Sprague-Dawley rats; conditions: male, rat, plasma, 5 mg/kg
in vivo [8] = conditions: male, Sprague-Dawley, rat, plasma, 5 mg/kg
[9] = biological target: recombinant human kappa opioid receptor (Homo sapiens (Human), UniProt P41145); type: binding
Method: as §3, §4

[10] = biological target: cloned human kappa opioid receptor (Homo sapiens (Human), UniProt P41145); type: cell-based
Method: as §1, §2

[11] = hydroxycodone series, IV 1 mg/kg, rats, Mean ± SD
[12] = inhibition of cAMP formation, 3 μM forskolin, CHO cells
[13] = inhibition of cAMP formation, maximal response vs known full agonist
[14] = SPA, CHO-K1 membranes, [3H]DAMGO 6 nM
[15] = male, Sprague-Dawley, rat, plasma, iv, 1 mg/kg

Sequence of recombinant human delta opioid receptor (P41143 whole entry, looked up): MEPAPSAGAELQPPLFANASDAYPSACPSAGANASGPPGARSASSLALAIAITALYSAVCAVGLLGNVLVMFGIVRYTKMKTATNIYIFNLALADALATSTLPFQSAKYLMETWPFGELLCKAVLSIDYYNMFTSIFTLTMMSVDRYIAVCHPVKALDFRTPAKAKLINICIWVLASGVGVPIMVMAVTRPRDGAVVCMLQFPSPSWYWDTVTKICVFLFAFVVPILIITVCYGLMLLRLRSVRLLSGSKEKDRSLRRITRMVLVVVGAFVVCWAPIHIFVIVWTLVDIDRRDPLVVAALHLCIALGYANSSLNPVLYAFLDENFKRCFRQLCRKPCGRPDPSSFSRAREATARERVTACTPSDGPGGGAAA

Row | Compound | AUCall [1, 11] | AUCinf [1, 11] | CL [1, 11] | Cmax [1, 11] | MRTlast [1, 11] | T1/2(z) [1, 11] | Vss [1, 11] | EC50 [2, 12] | MU OPIOID RECEPTOR % max effect [2, 13] | Ki [3, 14] | EC50 [2] | MU OPIOID RECEPTOR % max effect [2] | Ki [3] | also measured
1 | COCCOCCO[C@H]1CC[C@@]2(O)[C@H]3Cc4ccc(OC)c5c4[C@@]2(CCN3C)[C@H]1O5 [α-6-mPEG2-O-Hydroxycodone, α-6-mPEG2-O-hydroxycodone] | 12000 ± 1610 ng·min/mL | 12200 ± 1650 ng·min/mL | 83.3 ± 10.8 mL/min/kg | 513 ± 48.8 ng/mL | 37.0 ± 2.60 min | 44.6 ± 1.80 min | 3.36 ± 0.298 L/kg | 5 µM | 101% | 0.632 µM |  |  |  | 
2 | COCCOCCOCCOCCO[C@H]1CC[C@@]2(O)[C@H]3Cc4ccc(O)c5c4[C@@]2(CCN3CC2CCC2)[C@H]1O5 [6-O-mPEG4-Nalbuphine, 6-O-mPEG4-nalbuphine] |  |  |  |  |  |  |  |  |  |  |  |  |  | Fold vs Nalbuphine At DELTA [4]: 0.47; Fold vs Nalbuphine At MU [5]: 1.23
3 | COCCOCCOCCO[C@H]1CC[C@@]2(O)[C@H]3Cc4ccc(OC)c5c4[C@@]2(CCN3C)[C@H]1O5 [α-6-mPEG3-O-Hydroxycodone, α-6-mPEG3-O-hydroxycodone] | 13800 ± 1050 ng·min/mL |  | 71.7 ± 4.99 mL/min/kg | 746 ± 2.08 ng/mL | 32.5 ± 1.92 min | 48.5 ± 7.83 min | 2.62 ± 0.206 L/kg | 2.83 µM | 108% | 0.775 µM |  |  |  | 
4 | α-6-mPEG7-O-codeine |  |  |  |  |  |  |  |  |  |  | 44.7 µM | 75% | 9.96 µM | 
5 | COCCOCCOCCOCCO[C@H]1CC[C@@]2(O)[C@H]3Cc4ccc(OC)c5c4[C@@]2(CCN3C)[C@H]1O5 [α-6-mPEG4-O-Hydroxycodone, α-6-mPEG4-O-hydroxycodone] |  | 11600 ± 827 ng·min/mL | 86.5 ± 6.36 mL/min/kg | 537 ± 31.0 ng/mL | 35.6 ± 2.88 min | 43.6 ± 3.27 min | 3.34 ± 0.113 L/kg |  |  |  | 3.71 µM | 109% | 0.893 µM | ED50 (mPEGn-O-HydroxyCodone series) (CD-1 male mice): 17.31 mg/kg
6 | COc1ccc2c3c1O[C@H]1C(O)CC[C@@]4(O)[C@@H](C2)N(C)CC[C@]314 (stereo partly drawn) [Hydroxycodone, α-6-hydroxycodone, reference compound] |  |  |  |  |  |  |  | 3.16 µM |  |  |  |  |  | 
7 | α-6-mPEG9-O-codeine |  |  |  |  |  |  |  |  |  |  | 48.2 µM | 80% | 9.98 µM | 
8 | COc1ccc2c3c1O[C@H]1[C@@H](O)C=C[C@H]4[C@@H](C2)N(C)CC[C@@]341 [Codeine] |  |  |  |  |  |  |  |  |  |  |  |  |  | AUC (in vivo [6]): 183 ng·h/mL; AUC(0-inf) (in vivo [6]): 190 ng·h/mL; Cmax (in vivo [6]): 469 ± 20.4 ng/mL; MRT last (in vivo [6]): 40.2 min; Vd (in vivo [6]): 4.14 ± 0.7 L/kg; clearance (in vivo [6]): 89.7 ± 15.3 mL/min/kg; Tmax [7]: 15 min; bioavailability (in vivo [8]; oral): 0.52%; AUC (in vivo [8]; po): 5.47 ng·h/mL; AUC(0-inf) (in vivo [8]; po): 7.18 ng·h/mL; Cmax (in vivo [8]; po): 6.24 ± 2.51 ng/mL; MRT last (in vivo [8]; po): 33.2 min
9 | COCCOCCOCCOCCOCCOCCOCCOCCOCCO[C@H]1CC[C@@]2(O)[C@H]3Cc4ccc(OC)c5c4[C@@]2(CCN3C)[C@H]1O5 [α-6-mPEG9-O-Hydroxycodone, α-6-mPEG9-O-hydroxycodone] | 16600 ± 2190 ng·min/mL | 21000 ± 4230 ng·min/mL | 48.9 ± 9.41 mL/min/kg | 955 ± 149 ng/mL | 52.7 ± 4.04 min |  | 6.35 ± 0.349 L/kg |  |  |  |  |  |  | mean t1/2 value as multiple of that of the parent molecule ([1]; IV 1 mg/kg, rats): 3 times
10 | COCCOCCOCCOCCOCCOCCO[C@H]1CC[C@@]2(O)[C@H]3Cc4ccc(OC)c5c4[C@@]2(CCN3C)[C@H]1O5 [α-6-mPEG6-O-Hydroxycodone, α-6-mPEG6-O-hydroxycodone] | 12600 ± 2370 ng·min/mL | 13100 ± 2390 ng·min/mL | 77.9 ± 14.4 mL/min/kg | 445 ± 83.6 ng/mL | 47.7 ± 1.41 min | 62.2 ± 5.17 min | 4.68 ± 0.938 L/kg | 12.5 µM | 102% | 1.9 µM |  |  |  | 
11 | α-6-mPEG1-O-codeine |  |  |  |  |  |  |  |  |  |  | 8.57 µM | 80% | 1.82 µM | Ki [9]: 54.7 µM; KAPPA OPIOID RECEPTOR % max effect [10]: 51%
12 | COCCO[C@H]1CC[C@@]2(O)[C@H]3Cc4ccc(OC)c5c4[C@@]2(CCN3C)[C@H]1O5 [α-6-mPEG1-O-Hydroxycodone, α-6-mPEG1-O-hydroxycodone] |  |  |  |  |  |  |  | 3.84 µM | 102% | 0.654 µM |  |  |  | ED50 (mPEGn-O-HydroxyCodone series) (CD-1 male mice): 6.064 mg/kg
13 | COc1ccc2c3c1O[C@H]1C(=O)CC[C@@]4(O)[C@@H](C2)N(C)CC[C@]314 [Oxycodone, reference compound] |  |  |  |  |  |  |  |  |  |  |  |  |  | AUC [1, 15]: 213 ng·h/mL; AUC(0-inf) [1, 15]: 217 ng·h/mL; Cmax [1, 15]: 495 ± 56 ng/mL; MRT last [1, 15]: 37 min; clearance [1, 15]: 77.1 ± 6.26 mL/min/kg; half-life [1, 15]: 47 ± 3.99 min; AUC [7]: 75.3 ng·h/mL; Cmax [7]: 25.5 ± 1.86 ng/mL; MRT last [7]: 179 min; Tmax [7]: 15 min; Emax ([2]; CHO, read-out: MU OPIOID RECEPTOR % max effect): 95%
14 | α-6-mPEG5-O-codeine |  |  |  |  |  |  |  |  |  |  |  |  |  | Ki [9]: 59.1 µM; KAPPA OPIOID RECEPTOR % max effect [10]: 60%
15 | α-6-mPEG4-O-codeine |  |  |  |  |  |  |  |  |  |  | 22.1 µM | 99% | 2.89 µM | Ki [9]: 97 µM
16 | α-6-mPEG6-O-codeine |  |  |  |  |  |  |  |  |  |  | 97.4 µM | 80% | 14.2 µM | Ki [9]: > 160 µM; KAPPA OPIOID RECEPTOR % max effect [10]: 21%
17 | COCCOCCOCCOCCOCCOCCOCCO[C@H]1CC[C@@]2(O)[C@H]3Cc4ccc(OC)c5c4[C@@]2(CCN3C)[C@H]1O5 [α-6-mPEG7-O-Hydroxycodone, α-6-mPEG7-O-oxycodone] | 14300 ± 583 ng·min/mL | 15800 ± 728 ng·min/mL | 63.3 ± 2.99 mL/min/kg | 489 ± 26.5 ng/mL | 54.3 ± 0.372 min | 87.0 ± 3.25 min | 5.31 ± 0.139 L/kg | 7.45 µM | 101% | 1.61 µM |  |  |  | 
18 | COCCOCCOCCOCCOCCO[C@H]1CC[C@@]2(O)[C@H]3Cc4ccc(OC)c5c4[C@@]2(CCN3C)[C@H]1O5 [α-6-mPEG5-O-Hydroxycodone, α-6-mPEG5-O-hydroxycodone] | 16900 ± 1800 ng·min/mL | 17700 ± 1990 ng·min/mL | 57.0 ± 6.07 mL/min/kg |  | 46.2 ± 1.86 min | 62.1 ± 3.85 min | 3.30 ± 0.184 L/kg | 5.04 µM | 108% | 1.86 µM |  |  |  | 
19 | α-6-mPEG2-O-codeine |  |  |  |  |  |  |  |  |  |  | 5.15 µM | 75% | 1.38 µM | Ki [9]: 22.6 µM; EC50 [10]: 40.1 µM; KAPPA OPIOID RECEPTOR % max effect [10]: 59%
